Assay results as given in paper PMC8316002, “Inhibition of Escherichia coli Lipoprotein Diacylglyceryl Transferase Is Insensitive to Resistance Caused by Deletion of Braun’s Lipoprotein” (Journal of Bacteriology, 2021).
Values after ≈ are worked out from the molar mass of the structure shown. Read-outs that look alike come from different tables or passages of the source. Where a SMILES comes first, the peptide text is derived from it. Bridges are numbered along the chain shown (N, C = ends). [ ]: non-standard residue; d: D form. Bip = N[C@@H](Cc1ccc(-c2ccccc2)cc1)C(=O)O; NMeF = CN[C@@H](Cc1ccccc1)C(=O)O

Assays:
PA14 imp4213 = assay: microbe, parasite or virus in culture; type: cell-based, P. aeruginosa; details: average of two independent experiments in duplicates
Method: Bacterial strains and plasmids used in this study are listed in Table S1 in the supplemental material. E. coli strain CFT073 (ATCC 700928) ([62]) and MG1655 (ATCC 700926) were purchased from ATCC. Gene disruption in CFT073 was performed as previously described ([17], [63]). CFT073 Δlgt and MG1655 ΔlspA were generated using λ Red recombination ([17], [63]). Plasmids pKD46 for the λ Red recombinase ([17], [63]), pKD4 or pSim18 for the integration construction ([17], [63]), and pCP20 ([64]) for the FLP recombinase were used in this study. The 3′ primers (Table S2) used to generate the integration construct from pKD4 contain a juxtaposed ribosome binding site downstream of the kanamycin (Kan) cassette to allow for the creation of nonpolar gene deletions within operons ([63]), which is critical when generating the lgt inducible deletion strain given that the ribosomal binding site of the thyA gene downstream of lgt is within the lgt coding region. The inducible deletion strains (MG1655 Δlgt and MG1655 ΔlolCDE) in either the WT and/or Δlpp backgrounds were generated using similar methods as previously described ([17], [65]). To delete lpp in the lgt, lspA, and lolCDE inducible deletion strains, the Kan cassette was removed by transforming the FLP recombinase-expressing pCP20 plasmid followed by deletion of the lpp gene using λ Red recombinase as discussed above. Similar protocols were used to introduce the imp4213 mutant allele. The PA14 imp4213 strain was generated based on published protocols ([66][–][68]). Briefly, the lptD imp4213 mutant allele was generated by PCR amplifying PA14 genomic DNA using primer pairs PA14imp4213_up-F/PA14imp4213_up-R (upstream region) and PA14imp4213_dn-F/PA14imp4213_dn-R (downstream region) to create lptD missing amino acids 425 to 447. PCR products were combined with the PCR-amplified vector pEX18gm with primers pLMG18_GA-F/pLMG18_GA-R and assembled using Gibson assembly (NEB). The resultant suicide vector pEX18gm was confirmed by sequence analysis (ELIM Biopharm). […]
Unless stated otherwise, E. coli cells were grown in Luria-Bertani (LB) medium (0.5% yeast extract, 1% tryptone, 0.5% NaCl) at 37°C. […] Growth of MG1655 inducible deletion strains was measured by culturing in the presence of 2-fold dilutions of arabinose (starting arabinose concentrations for CFT073 and MG1655 inducible deletion strains were 4% and 0.8%, respectively). While 2% arabinose was sufficient for WT growth of MG1655 Δlgt, 4% arabinose was used for CFT073 Δlgt based on comparing its growth to that of WT CFT073 as measured by CFU. OD600 growth measurements were performed using an EnVision 2101 multilabel reader plate reader (PerkinElmer) linked with Echo liquid handler (Labcyte). […]

P. aeruginosa PA14 = assay: microbe, parasite or virus in culture; type: cell-based; details: average of two independent experiments in duplicates
Method: (§1) Unless stated otherwise, E. coli cells were grown in Luria-Bertani (LB) medium (0.5% yeast extract, 1% tryptone, 0.5% NaCl) at 37°C. Where indicated, kanamycin (Kan) was added to culture media at a 50-μg/ml final concentration. MIC assays were performed based on Clinical and Laboratory Standards Institute (CLSI) guidelines. For in vitro growth curves, overnight cultures of WT CFT073, CFT073 Δlgt, and CFT073 Δlgt complemented with lgt from E. coli (lgt^Ec) or P. aeruginosa (lgt^Pa) were grown to mid-exponential phase (optical density at 600 nm [OD600] of 0.6) and then diluted to an OD600 of 0.1 to initiate growth curves. At various times, culture aliquots were diluted and plated in dilutions on LB+Kan agar, and CFU were enumerated in duplicates. Growth of MG1655 inducible deletion strains was measured by culturing in the presence of 2-fold dilutions of arabinose (starting arabinose concentrations for CFT073 and MG1655 inducible deletion strains were 4% and 0.8%, respectively). While […] was sufficient for WT growth of MG1655 Δlgt, 4% arabinose was used for CFT073 Δlgt based on comparing its growth to that of WT CFT073 as measured by CFU. OD600 growth measurements were performed using an EnVision 2101 multilabel reader plate reader (PerkinElmer) linked with Echo liquid handler (Labcyte). For time-kill experiments, bacteria were harvested in mid-exponential phase and treated with 12.5 μM G2824, 3.2 μM globomycin, and 1.6 μM vancomycin. CFU were enumerated at various times posttreatment. Bacterial culture medium containing 2% arabinose was used to induce lpp or lppΔK expression from pBad24 plasmids. Bacterial viability at different time points during the treatment was measured by enumerating CFU. Serum killing assays were carried out as previously described ([17]).

A. baumannii 19606 = assay: microbe, parasite or virus in culture; type: cell-based; details: average of two independent experiments in duplicates
Method: as §1

[1] = system: A. baumannii 19606 + EDTA; assay: microbe, parasite or virus in culture; type: cell-based; details: average of two independent experiments in duplicates
Method: as §1

S. aureus USA300 = assay: microbe, parasite or virus in culture; type: cell-based
Method: as §1

PA14 + EDTA = assay: microbe, parasite or virus in culture; type: cell-based, P. aeruginosa; details: average of two independent experiments in duplicates
Method: as §1

in vitro = type: cell-based; details: human, representative of three independent replicates, read-out: EC50, mammalian cytotoxicity
Text: TABLE 2 Growth inhibition of a panel of bacterial strains and eukaryotic cells by G9066, G2824, globomycin, and vancomycin | column: MIC or EC50 (μM)^a / G9066; MIC or EC50 (μM)^a / G2824; MIC or EC50 (μM)^a / Globomycin; MIC or EC50 (μM)^a / Vancomycin

[2] = S. aureus USA300, average of two independent experiments in duplicates

`CN[C@H](CC(C)C)C(=O)N[C@H]1C(=O)N[C@@H](CC(N)=O)C(=O)N[C@H]2C(=O)N[C@H]3C(=O)N[C@H](C(=O)N[C@H](C(=O)O)c4cc(O)cc(O)c4-c4cc3ccc4O)[C@H](O)c3ccc(c(Cl)c3)Oc3cc2cc(c3O[C@@H]2O[C@H](CO)[C@@H](O)[C@H](O)[C@H]2O[C@H]2C[C@](C)(N)[C@H](O)[C@H](C)O2)Oc2ccc(cc2Cl)[C@H]1O` [Vancomycin] showed an MIC (PA14 imp4213; Pseudomonas aeruginosa) of 12.5 µM, an MIC (P. aeruginosa PA14; Pseudomonas aeruginosa) greater than 100 µM and an MIC (A. baumannii 19606; Acinetobacter baumannii) greater than 100 µM. It also gave an MIC ([1]; Acinetobacter baumannii) of 0.2 µM (≈ 0.29 µg/mL), an MIC (S. aureus USA300; Staphylococcus aureus, USA300) of 0.4 µM (≈ 0.58 µg/mL) and an MIC (PA14 + EDTA; Pseudomonas aeruginosa) of 6.3 µM (≈ 9.13 µg/mL). It also gave an EC50 (in vitro; 293T) greater than 100 µM, an EC50 (in vitro; Hela) greater than 100 µM and an EC50 (in vitro; HepG2) greater than 100 µM.
`CCCCCC[C@H]1OC(=O)CNC(=O)[C@H]([C@H](C)O)NC(=O)[C@H](CO)NC(=O)[C@H]([C@H](C)CC)NC(=O)[C@H](CC(C)C)N(C)C(=O)[C@@H]1C` [Globomycin] gave an MIC (PA14 imp4213) of 50 µM, an MIC (P. aeruginosa PA14) greater than 100 µM and an MIC (A. baumannii 19606) of 25 µM (≈ 16.4 µg/mL). The MIC [1] was 0.6 µM (≈ 0.394 µg/mL), the MIC (S. aureus USA300; [2]) was greater than 100 µM and the MIC (PA14 + EDTA) was 50 µM (≈ 32.8 µg/mL). It also gave an EC50 (in vitro; 293T) greater than 100 µM, an EC50 (in vitro; Hela) greater than 100 µM and an EC50 (in vitro; HepG2) greater than 100 µM.
In the case of `CN1C(=O)[C@H](Cc2ccc(-c3ccccc3)cc2)NC(=O)CNC(=O)[C@H](CC(=O)O)NC(=O)[C@@H](Cc2ccccc2)NC(=O)CSC[C@@H](C(=O)NCC(=O)N[C@@H](CCCCN)C(=O)N[C@@H](CCCCN)C(N)=O)NC(=O)[C@H](CCCNC(=N)N)NC(=O)[C@H](CO)NC(=O)[C@H](Cc2ccc(-c3ccccc3)cc2)NC(=O)[C@@H]1Cc1ccccc1` [G2824] ({CH2CO}-[dF]DG[Bip][NMeF][Bip]SRCGKK-NH2; thioether N-9), the MIC (PA14 imp4213) is reported as 6.3 µM, the MIC (P. aeruginosa PA14) is reported as greater than 100 µM and the MIC (A. baumannii 19606) is reported as 37.5 µM (≈ 61.6 µg/mL). It also gave an MIC [1] of 6.3 µM (≈ 10.4 µg/mL), an MIC (S. aureus USA300; [2]) greater than 100 µM and an MIC (PA14 + EDTA) of 6.3 µM (≈ 10.4 µg/mL). It also gave an EC50 (in vitro; 293T) greater than 100 µM, an EC50 (in vitro; Hela) greater than 100 µM and an EC50 (in vitro; HepG2) greater than 100 µM.
Work on `CN1C(=O)[C@H](Cc2ccc(-c3ccccc3)cc2)NC(=O)CNC(=O)[C@H](CCCNC(=N)N)NC(=O)[C@@H](Cc2ccccc2)NC(=O)CSC[C@@H](C(=O)NCC(N)=O)NC(=O)[C@H](CCCNC(=N)N)NC(=O)[C@H](CO)NC(=O)[C@H](Cc2ccc(-c3ccccc3)cc2)NC(=O)[C@@H]1Cc1ccccc1` [G9066] ({CH2CO}-[dF]RG[Bip][NMeF][Bip]SRCG-NH2; thioether N-9) yielded an MIC (PA14 imp4213) of 6.3 µM, an MIC (P. aeruginosa PA14) greater than 100 µM and an MIC (A. baumannii 19606) of 37.5 µM (≈ 53.6 µg/mL). It also gave an MIC [1] of 3.1 µM (≈ 4.43 µg/mL), an MIC (S. aureus USA300; [2]) of 6.3 µM (≈ 9 µg/mL) and an MIC (PA14 + EDTA) of 6.3 µM (≈ 9 µg/mL). The EC50 (in vitro; 293T) was greater than 100 µM, the EC50 (in vitro; Hela) was greater than 100 µM and the EC50 (in vitro; HepG2) was greater than 100 µM.
